This is an account of results in patent publication US20120035187A1 (priority 2009, published 2012).

Marks after values point to notes of the source that are not given here.

The subject of data set [1] is PC12-HS cells. Kind of data set: Cytotoxicity by amyloid β fragment, cell survival (Evaluation C). Type of data set: cell-based. Conditions: for Cell survival percentage (%): PC12-HS cells + amyloid β fragment. As for the experimental part:
A plurality of peptide fragments (called “AMYLOID β FRAGMENT” commercialized by AnaSpec, Inc., CA, USA, each peptide having the amino acid sequence of SEQ ID NO:1), which have an amino acid sequence positioning from 25th to 35th from the N-terminus of amyloid R peptide with human origin and have been recognized as a main factor of neurocyte death in Alzheimer's disease, were diluted with phosphate buffered saline (PBS) to give a concentration of 2 mM, and used after being aged at 37° C. for six hours to coagulate them to increase their cytotoxicity before use. […] Viability (%) of cells in each well was determined and shown in Table 1 by calculating a relative value when the fluorescent intensity of the control was regarded as 100%. While, the supernatant of cell culture, which had been cultured under the same conditions as above, was removed, and the resulting cells were fixed by the addition of 1% by volume of glutaraldehyde, which had been prepared by diluting with PBS, in a volume of 100 μl/well for 30 min. Thereafter, the cells were stained with […] Hoechst 33258 dye commercialized by SIGMA Corporation, Tokyo, Japan, for five min, observed at a magnitude corresponding to a visual filed containing about 100 cells under a phase contrast microscope and a fluorescent microscope, and counted. The occupied percentage (%) of cells with apoptosis against the total cells in one visual field was calculated and the data was also shown in Table 1. The judgment of cells with apoptosis was made with an index of fragmentation of cell nuclei and chromatin aggregation within the nuclei.
Then, the effect of the above-compounds' concentrations on the cytotoxicity by amyloid β fragment was further investigated. The above 6-compounds and NK-4 were used as test samples, and the protective effects of these compounds against cytotoxicity by amyloid β fragment were evaluated by the same conditions as used in Evaluation C in Experiment 3, except for adding each compound to a well inoculated with PC12-HS cells to give a final concentration as shown in Table 7.

Data set [2] has as its system brain ischemia rat. Description: Brain ischemia (cerebral infarction model) rat: behavioral score. The class given is in vivo. Also noted: Behavioral score: scale not given here. To be noted: for behavioral score (in words): Experiment 13, cerebral-infarction-model rat, administered through caudal vein. As for the experimental part:
Male SD rats, seven- to eight-weeks of age and 280 to 330 g body weight, commercialized by Charles River Laboratories Japan Inc., Kanagawa, Japan, were allocated randomly into seven groups, consisting of five to seven rats in each group. Among the seven groups, five groups were subjected to the following surgery as test groups: Rats in the test groups were subcutaneously administered with 0.3 mg/kg body weight of atropine, commercialized by Fuso Pharmaceutical industries, Osaka, Japan. Successively, each rat was anesthetized by administrating 600 mg/kg body weight of urethane, commercialized by Sigma-Aldrich Co., MO, USA, and 60 mg/kg-weight of […], commercialized by Sigma-Aldrich Co., MO, USA, into the peritoneal cavity, and fixed to a fixator under voluntary breathing conditions. The right carotid artery bifurcation was exposed by median incision of the neck without damaging vagus nerve. The common carotid artery and external carotid artery around the right carotid artery bifurcation were exfoliated from surrounding connective tissue and wired respectively using “NESCOSUTURE”, a 6-0 nylon string commercialized by Alfresa Pharma Corporation, Osaka, Japan. Then, the internal carotid artery was tied with the 6-0 nylon string for fixation after insertion of an obturator. Successively, the common carotid artery was incised and a silicon-coated obturator, prepared by a 4-0 nylon string, commercialized by Doccol Corp., CA, USA, was inserted from the common carotid artery into the internal carotid artery at a distance of about 16 mm, and clipped to the common carotid artery (see, for example, Koizumi et al., Cerebral stroke, Vol. 8, No. 1, pp. 1-8 (1986)). By the method, the silicon-coated tip of obturator was inserted through the right carotid artery bifurcation to frontal cerebral artery at a distance of about 2 mm and obstructs the inlet of the medial cerebral artery. After two hours occlusion of the medial cerebral artery while keeping the rat on an isothermal pad controlled at a temperature of 37° C., blood was allowed to reperfuse by withdrawing the obturator. Then, the internal carotid artery was tied near the carotid artery bifurcation for preventing the bleeding from the incised part of the common carotid artery. In the model, the blood was reperfused through the left carotid artery, vertebral artery, basilar artery, frontal and backward communication artery because the right carotid artery was clipped.
NK-4, NK-19, NK-53, NK-100, and NK-557, used in the test, were respectively dissolved in DMSO (product No. “D8418”, commercialized by Sigma-Aldrich Co., MO, USA) to give a concentration of 5 mg/ml and filtrated using “MILLEX-LG SLLG025SS”, a DMSO-resistant membrane filter commercialized by Millipore, MA, USA. Stock […], and then 4 ml/kg body weight of any of the resulting diluted solutions was administered ([…]) to five test groups (test groups 1 to 5) consisting of five or seven rats, through their caudal veins at both after one hour from the occlusion of middle cerebral artery and immediately after initiating reperfusion. After 24 hours from the reperfusion of blood, behavioral and histological evaluations of rats were carried out according to the following procedures: As a control group 1, five rats in one group out of the remaining two groups were subjected to the same surgery as the rats in the test groups 1 to 5, and administered with 4 ml/kg body weight of PBS free of any of the compounds through their caudal veins at both after one hour of the medial cerebral artery occlusion and immediately after the start of reperfusion. As the control group 2, six rats in the remaining one group were subjected to a sham surgery, in which common, external, and internal carotid arteries were clipped and then reperfused their blood without inserting the obturator to each medial cerebral artery. […]

The mark [3] stands for this setting: final concentration of compound 12.5 ng/ml.
The mark [4] stands for this setting: final concentration of compound 50 ng/ml.
The mark [5] stands for this setting: final concentration of compound 200 ng/ml.
Setting [6] is: final concentration of compound 800 ng/ml.
The mark [7] stands for this setting: brain ischemia rats (embolus, 2 h occlusion, reperfusion), 100 p g/kg body weight via caudal vein 1 h after occlusion and at reperfusion, 24 hours after reperfusion, maximum score 6.
The mark [8] stands for this setting: embolus rat, dose 100 μg per kg body weight, caudal vein.

For the molecule `CCN1C=CC(=CC=C(C=Cc2cc[n+](CC)c3ccccc23)c2cc[n+](CC)c3ccccc23)c2ccccc21.[I-].[I-]` [NK-4], the “Survibal percentage of cells when admixed with cytotoxic factor (%) Amyloid β fragment” value is reported as 129 ** % in data set [1] (NK-4 200 ng/ml); 97 ** % in data set [1] (NK-4 1000 ng/ml); 97 ** % in data set [1] (NK-4 5000 ng/ml); 89 ** % in data set [1] (PC12-HS cells, 50 μM amyloid β fragment, 3 days, NK-4 40 ng/ml). Also, in data set [1] (PC12-HS cells), the “minimum concentration exerting protection action against injury through amyloid β fragment” value came out at 40 ng/mL. The “Cell survival percentage (%)” value in data set [1] (setting [3]) is 34 ± 1%; in data set [1] (setting [4]), 69 ± 7%; in data set [1] (setting [5]) it was 122 ± 32%; in data set [1] (setting [6]), 89 ± 4%. Further, the “behavioral score (in words)” value in data set [2] was “significantly improved”. Further, the Behavioral score worked out at 2.9 ± 0.2 in data set [2] (setting [7]); 4.5 ± 0.6 in data set [2] (embolus rat, dose 25 μg per kg body weight, caudal vein); 3.3 ± 0.4 in data set [2] (embolus rat, dose 50 μg per kg body weight, caudal vein); 2.6 ± 0.2 in data set [2] (setting [8]); 3.7 ± 0.4 in data set [2] (embolus rat, dose 200 μg per kg body weight, caudal vein); 4.2 ± 0.5 in data set [2] (embolus rat, dose 300 μg per kg body weight, caudal vein).

On to `CCCCN1C=C/C(=C/C=C(/C=C/c2cc[n+](CCCC)c3ccccc23)c2cc[n+](CCCC)c3ccccc23)c2ccccc21` [NK-26], for which the “behavioral score (in words)” value in data set [2] was “significantly improved”. Moreover, the Behavioral score is 4.4 ± 0.4 in data set [2] (embolus rat, dose 1 μg per kg body weight, caudal vein); 3.44 ± 0.6 in data set [2] (embolus rat, dose 10 μg per kg body weight, caudal vein); 4.3 ± 0.4 in data set [2] (setting [8]).

As for `CCN1/C(=C/C=C(/C=C/c2sc3ccccc3[n+]2CC)c2sc3ccccc3[n+]2CC)Sc2ccccc21.[I-].[I-]` [NK-100], the “Cell survival percentage (%)” value in data set [1] (setting [3]) stood at 47 ± 2%; in data set [1] (setting [4]), 88 ± 12%; in data set [1] (setting [5]), 60 ± 5%; in data set [1] (setting [6]) it was 44 ± 4%. The molecule further yielded a Behavioral score in data set [2] (setting [7]) of 2.4 ± 0.2.

Turning to `CN(C)c1ccc(/C=C/c2oc3ccccc3[n+]2C)cc1` [NK-528], the “Cell survival percentage (%)” value in data set [1] (setting [3]) worked out at 40 ± 9%; in data set [1] (setting [4]), 36 ± 4%; in data set [1] (setting [5]) it was 50 ± 10%; in data set [1] (setting [6]) it was 111 ± 7%.

Turning to `CC[n+]1ccccc1/C=C/c1ccc(N(C)C)cc1` [NK-557], the “Cell survival percentage (%)” value in data set [1] (setting [3]) is listed as 36 ± 3%; in data set [1] (setting [4]) it was 114 ± 9%; in data set [1] (setting [5]), 94 ± 11%; in data set [1] (setting [6]), 73 ± 1%. The Behavioral score in data set [2] (setting [7]) came to 2.9 ± 0.3.

With `COc1ccc2oc(/C=C/c3ccc(N(C)C)cc3)[n+](C)c2c1` [NK-1516], the “Cell survival percentage (%)” value came out at 34 ± 5% in data set [1] (setting [3]), 29 ± 5% in data set [1] (setting [4]), 31 ± 3% in data set [1] (setting [5]) and 70 ± 11% in data set [1] (setting [6]).
